{"source": "patent US20130045203A1", "about": "“Uses of Noscapine and Derivatives in Subjects Diagnosed with FAP” (EMORY UNIVERSITY, priority 2010, published 2013)", "key": {"[1]": {"test_system": "β-catenin levels in Apc^Min/+ MEFs", "assay": "Quantitative western blot of β-catenin levels", "assay_type": "cell-based, mouse"}, "Apc^Min/+ mice": {"test_system": "Apc^Min/+ mice", "assay": "Intestinal polyp/adenoma study in Apc^Min/+ mice", "assay_type": "in vivo, mouse", "details": "for adenoma load, distal intestine: control 12.5±2.9; for adenoma load, distal intestine / adenoma load, proximal intestine: p<0.01; for adenoma load, proximal intestine: control 32.2±2.3", "description": "Mice were treated either with the vehicle solution alone (control) or 150 mg/kg body weight of 9-bromonoscapine. The mice were analyzed for the number of polyps throughout the gastrointestinal tract of animals. […] Representative bright filed micrographs of hematoxylin and eosine stained 5 μm cross sections from the intestine of vehicle treated control group (FIG. 3A ii, left panel) and 9-bromonoscapine treated group (FIG. 3A ii, right panel) show hyperplastic tissue lesions. In 9-bromonoscapine treated animals, the lesions were not clustered and, when found, seem much more restricted to the individual microvilli and were subdued in appearance (FIG. 3A ii, right panel).\nTo distinguish between neopolyposis post-treatment versus the growth of apparently existing polyps, two treatment regimens were followed. Treated 1: 9-bromonoscapine oral treatment (150 mg/kg body weight) began after 8 weeks of age and continued daily for 12 weeks prior to the experimental end point (in 20 weeks): Treated 2: 9-bromonoscapine oral administration began 21 days after birth at the same dose level for time matched period until the experimental end point. At this time, animals were euthanized and the entire GI tract was dissected out and flushed with PBS. The intestine was then removed from the colon and cut into three equal segments: proximal, medial, and distal. The colon and all three segments of the intestine were cut open longitudinally, stained with methylene blue prior to examination under a dissecting microscope fitted with a micrometer to aid the measurements. The vertex and co-vertex of each elliptical lesion was measured. The area was then calculated by multiplying the vertex, co-vertex and π (3.14). […] There was no visible difference between the groups of treated 1 and treated 2. The colonic adenomas are known to be rare in Apc^Min/+ mouse models."}, "WT MEFs [2]": {"test_system": "WT MEFs", "assay": "FACS analysis of DNA content", "assay_type": "cell-based, mouse"}, "Apc^Min/+ MEFs [3]": {"test_system": "Apc^Min/+ MEFs", "assay": "Confocal microscopy of MT arrays and chromosomes", "assay_type": "cell-based, mouse", "details": "48 hours of treatment, no recovery after drug removal"}, "[4]": {"test_system": "β-catenin activity in Apc^Min/+ MEFs", "assay": "Tcf4/β-catenin responsive luciferase reporter assay", "assay_type": "cell-based, mouse", "from_the_text": "(§1) HCT116 cells harbor an in-frame deletion of one phosphorylation site (Ser^45) in β-catenin that renders is partially active but has wild type APC. […] Because β-catenin is a negative regulator of CDKs inhibitor p21, p21 levels will rise upon restored downregulation of β-catenin and the cell cycle progression will be inhibited allowing cellular apoptosis (FIG. 2A). […] Hohla et al., Cell Cycle, 2009, 8(19):3149-3156.\n(§2) This decrease in β-catenin levels does translate in reduction of its activity. A reporter gene luciferase under the control of three cloned copies of a conserved Tcf4/β-catenin responsive element was used and compared with an internal control, i.e., another reporter Renilla activity driven by a (β-catenin independent) promoter (CMV) in all three cell types tested (HCT116, DLD, Apc^Min/+ MEFs)."}, "Apc^Min/+ MEFs [5]": {"test_system": "Apc^Min/+ MEFs", "assay": "FACS analysis of DNA content", "assay_type": "cell-based, mouse"}, "tubulin": {"test_system": "tubulin", "details": "without changing total microtubule polymer mass; cited from earlier work"}, "[6]": {"test_system": "cyclin D1, c-Myc, p21, cleaved caspase-3", "assay": "Quantitative western blot of β-catenin target proteins and cleaved caspase-3", "assay_type": "cell-based, mouse", "from_the_text": "Positively responsive target genes cyclin-D l and c-Myc, and the negatively responsive gene, p21, respond with the restoration of partial loss of function by depleted APC activity after 9-bromonoscapine treatment. […] Furthermore, caspase-3 was activated as measured by the rising levels of cleaved active caspase-3."}, "WT MEFs [7]": {"test_system": "WT MEFs", "assay": "Confocal microscopy of MT arrays and chromosomes", "assay_type": "cell-based, mouse", "details": "reversed 24 hours after withdrawal"}, "WT MEFs [8]": {"test_system": "WT MEFs", "assay": "Annexin V-Alexa Fluor488 / propidium iodide apoptosis FACS", "assay_type": "cell-based, mouse", "details": "50 μM, 48 hour treatment", "description": "(§3) Apoptotic cells that externalize the normal internal membrane lipid, phosphatidylserine, were analyzed by binding a fluorescently conjugated PS-binding protein, Annein V-Alexa Fluor488. These cells can be distinguished from the late apoptotic cells that also allow the DNA dye, Propidium iodide (PI) to penetrate the cell membranes allowing intracellular DNA to bind it. As shown in FIG. 1D i-ii, 73% of Apc^Min/+ MEFs were in early and late stages of apoptosis after a 48 hour treatment with 9-bromonoscapine (50 μM) as compared to a modest 21.6% WT MEFs under identical treatment regimen (FIG. 1D i-ii). 9-Bromonoscapine causes a selective cell death (apoptosis) in MEFs isolated from Apc^Min/+ mice when compared to the WT MEFs providing a therapeutic window from 5-50 μM range."}, "Apc^Min/+ MEFs [9]": {"test_system": "Apc^Min/+ MEFs", "assay": "Annexin V-Alexa Fluor488 / propidium iodide apoptosis FACS", "assay_type": "cell-based, mouse", "details": "50 μM, 48 hour treatment", "description": "as §3"}, "[10]": {"test_system": "β-catenin activity in DLD1 cells", "assay": "Tcf4/β-catenin responsive luciferase reporter assay", "assay_type": "cell-based", "details": "p<0.01", "from_the_text": "as §1, §2"}, "[11]": {"test_system": "β-catenin activity in HCT116 cells", "assay": "Tcf4/β-catenin responsive luciferase reporter assay", "assay_type": "cell-based", "details": "8 hours after treatment", "from_the_text": "as §1, §2"}, "WT MEFs [12]": {"test_system": "WT MEFs", "assay": "Trypan blue exclusion viable/dead cell count", "assay_type": "cell-based, mouse", "details": "48 hours", "description": "(§4) Murine embryonic fibroblasts (MEFs) isolated from Apc^Min/+ mice and wild type mice were treated with either vehicle solution of DMSO or varying concentrations of 9-bromonoscapine for 48 hours. Viable and dead cells were counted in triplicate using exclusion of the vital dye, trypan blue. […] This provided a therapeutic window (5-50 μM) for selective killing of Apc^Min/+ MEFs while causing minimal damage to the WT MEFs (FIG. 1A)."}, "Apc^Min/+ MEFs [13]": {"test_system": "Apc^Min/+ MEFs", "assay": "Trypan blue exclusion viable/dead cell count", "assay_type": "cell-based, mouse", "description": "as §4"}, "[14]": {"assay": "Toxicology: histopathology, organ function, hematology", "assay_type": "in vivo, mouse", "description": "Hematoxylin and eosin stained 5 μm sections of paraffin-embedded brain, lung, liver, kidney, thymus, spleen, heart, and sciatic nerve tissues were analyzed. […] Organ associated toxicity was assessed by measuring organ functions in vehicle-treated and 9-bromonoscapine treated groups. Liver function tests (total bilirubin, alanine transaminase, aspartate aminotransferase, and alkaline phosphate levels) and renal functions tests (blood urea nitrogen and creatinine levels) were similar between drug treated and vehicle-treated groups."}, "[15]": {"details": "Treated 1: oral 150 mg/kg daily from 8 weeks of age for 12 weeks"}, "[16]": {"details": "Treated 2: oral 150 mg/kg from 21 days after birth to end point"}, "[17]": {"details": "drug treated vs vehicle-treated"}}, "note": "Entries after “also recorded” stand apart in the source; their conditions may differ.", "data": [{"compound": "COc1ccc2c(c1OC)C(=O)OC2C1c2c(c(Br)c3c(c2OC)OCO3)CCN1C", "note": "(stereo not drawn) [9-bromonoscapine, 3-(9-bromoe-4-methoxy-6-methyl-5,6,7,8-tetrahydro-[1,3]dioxolo[4,5-g]isoquinolin-5-yl)-6,7-dimethoxyisobenzofuran-1(3H)-one]", "values": [{"measurement": "β-catenin levels", "setting": "[1]", "value": "two-fold decrease; also recorded: fell to half the original levels"}, {"measurement": "number and overall areas of intestinal lesions", "setting": "Apc^Min/+ mice; 150 mg/kg body weight, methylene blue stained intestine", "value": "pronounced decrease"}, {"measurement": "apoptotic foci in lesioned tissue (cleaved caspase 3 immunohistochemistry)", "setting": "Apc^Min/+ mice; 150 mg/kg, basal areas of the villus", "value": "additional copious apoptotic foci"}, {"measurement": "adenoma load, distal intestine", "setting": "Apc^Min/+ mice; [15]", "value": "5.2±0.6", "unit": "mm2"}, {"measurement": "adenoma load, proximal intestine", "setting": "Apc^Min/+ mice; [15]", "value": "13.7±1.4", "unit": "mm^2"}, {"measurement": "adenoma load, distal intestine", "setting": "Apc^Min/+ mice; [16]", "value": "5.2±0.8", "unit": "mm2"}, {"measurement": "adenoma load, proximal intestine", "setting": "Apc^Min/+ mice; [16]", "value": "11.8±0.8", "unit": "mm^2"}, {"measurement": "total number of adenomas", "setting": "Apc^Min/+ mice; both treatment groups (Treated 1, Treated 2) vs sham-treated controls, oral 150 mg/kg", "value": "significant decline"}, {"measurement": "number of big lesions (>3 mm^2 and >1 mm^2)", "setting": "Apc^Min/+ mice; size distribution bins, oral 150 mg/kg", "value": "significant decreases"}, {"measurement": "adenoma within the colon", "setting": "Apc^Min/+ mice; treated vs control", "value": "did not reveal any apparent differences"}, {"measurement": "cell cycle distribution (DNA content)", "setting": "WT MEFs [2]", "value": "a decline in G1 and a rise in G2/M"}, {"measurement": "mitotic phenotype", "setting": "Apc^Min/+ MEFs [3]", "value": "highly disorganized, often multipolar mitoses"}, {"measurement": "β-catenin activity lowered to", "setting": "[4]; Apc^Min/+ MEFs, p<0.01", "value": 59, "unit": "%"}, {"measurement": "β-catenin activity (in words)", "setting": "[4]; Apc^Min/+ cells", "value": "fell to half the original levels"}, {"measurement": "cell cycle distribution (DNA content)", "setting": "Apc^Min/+ MEFs [5]", "value": "a decline in G1 and a rise in G2/M"}, {"measurement": "sub-G1 DNA content", "setting": "Apc^Min/+ MEFs [5]; 48 hours of treatment", "value": "distinct shift of cells to a sub-G1 DNA content of <2N"}, {"measurement": "tubulin binding affinity relative to noscapine", "setting": "tubulin", "value": "higher affinity than noscapine"}, {"measurement": "c-Myc protein level", "setting": "[6]", "value": "down"}, {"measurement": "caspase-3 activation (cleaved active caspase-3)", "setting": "[6]", "value": "activated"}, {"measurement": "cyclin D1 protein level", "setting": "[6]", "value": "down"}, {"measurement": "p21 level", "setting": "[6]", "value": "elevated"}, {"measurement": "mitotic phenotype", "setting": "WT MEFs [7]", "value": "typical mitotic arrest with bipolar prometaphase spindles"}, {"measurement": "cells in early and late stages of apoptosis", "setting": "WT MEFs [8]", "value": 21.6, "unit": "%"}, {"measurement": "cells in early and late stages of apoptosis", "setting": "Apc^Min/+ MEFs [9]", "value": 73, "unit": "%"}, {"measurement": "β-catenin activity lowered to", "setting": "[10]", "value": 48, "unit": "%"}, {"measurement": "decline in β-catenin activity", "setting": "[11]", "value": 31, "unit": "%"}, {"measurement": "IC50", "setting": "WT MEFs [12]", "value": 135, "unit": "µM"}, {"measurement": "IC50", "setting": "Apc^Min/+ MEFs [13]; Apc^Min/+ MEFs, 48 hours, trypan blue exclusion", "value": 28.6, "unit": "µM"}, {"measurement": "therapeutic window for selective killing of Apc^Min/+ MEFs", "setting": "Apc^Min/+ MEFs [13]; minimal damage to WT MEFs", "value": "5 to 50", "unit": "µM"}, {"measurement": "sensitivity of Apc^Min/+ MEFs relative to WT MEFs", "setting": "Apc^Min/+ MEFs [13]; ratio of IC50 values, 48 hours", "value": 4.7, "unit": "times"}, {"measurement": "systemic homeostasis (albumin, total protein, glucose) and electrolyte balances (Na+, K+, TCO2)", "setting": "[14]; among the three groups", "value": "not distinguishable profiles"}, {"measurement": "tissue architecture (H&E sections of brain, lung, liver, kidney, thymus, spleen, heart, sciatic nerve)", "setting": "[14]; blinded observations, treated vs vehicle", "value": "did not reveal any significant differences"}, {"measurement": "liver function tests (total bilirubin, alanine transaminase, aspartate aminotransferase, alkaline phosphate levels)", "setting": "[14]; [17]", "value": "similar"}, {"measurement": "renal functions tests (blood urea nitrogen and creatinine levels)", "setting": "[14]; [17]", "value": "similar"}, {"measurement": "WBC, RBC counts, hemoglobin concentration, hematocrit, platelet counts", "setting": "[14]; treated vs vehicle", "value": "no significant differences"}]}, {"compound": "COc1ccc2c(c1OC)C(=O)OC2C1c2c(cc3c(c2OC)OCO3)CCN1C", "note": "(stereo not drawn) [noscapine, 3-(4-methoxy-6-methyl-5,6,7,8-tetrahydro-[1,3]dioxolo[4,5-g]isoquinolin-5-yl)-6,7-dimethoxyisobenzofuran-1(3H)-one]", "values": [{"measurement": "cell cycle distribution (DNA content)", "setting": "WT MEFs [2]", "value": "reversible G2/M arrest"}]}]}
